Where two headings read alike, the source gives them in different places.

One experiment concerns AGS. Nature of the experiment: Cell proliferation experiment (CellTiter-Glo). The format is cell-based. As to conditions: read-out: IC50(nM) AGS.
In a further experiment the target is KRAS G12D (Homo sapiens, UniProt P01116, G12D).
Setting [1] is: AGS, KRAS mutation type G12D, 96 h incubation.

Chain of KRAS G12D (P01116 1-188 isoform P01116-2 G12D): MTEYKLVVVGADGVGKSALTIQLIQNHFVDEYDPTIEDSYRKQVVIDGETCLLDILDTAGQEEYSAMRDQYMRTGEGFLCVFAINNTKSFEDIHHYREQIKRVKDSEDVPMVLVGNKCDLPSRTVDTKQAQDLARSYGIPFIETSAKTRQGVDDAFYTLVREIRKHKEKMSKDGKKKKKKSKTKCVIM

For the compound `C#Cc1c(F)ccc2cc(O)cc(-c3ncc4c(N5CCCOCC5)nc(OC[C@]56CCCN5[C@@H](COC(=O)N5CCC7(CC5)CC(C(=O)N[C@H](C(=O)N5C[C@H](O)C[C@H]5C(=O)N[C@@H](C)c5ccc(-c8scnc8C)cc5)C(C)(C)C)C7)CC6)nc4c3F)c12` [Compound 90], the IC50 in the experiment with AGS was found to be 83 nM.

Turning to `C=C1CN2[C@H](COC(=O)N3CCN(c4cc([C@H](C(=O)N5C[C@H](O)C[C@H]5C(=O)N[C@@H](C)c5ccc(-c6scnc6C)cc5)C(C)C)on4)CC3)CC[C@@]2(COc2nc(N3CCC[C@@](C)(O)C3)c3cnc(-c4cc(O)cc5ccc(F)c(CC)c45)c(F)c3n2)C1` [Compound 110], the IC50 in the experiment on AGS came to 52 nM. For the compound `C=C1CN2[C@H](CN3CCC(c4cn([C@H](C(=O)N5C[C@H](O)C[C@H]5C(=O)N[C@@H](C)c5ccc(-c6scnc6C)cc5)C(C)C)nn4)CC3)CC[C@@]2(COc2nc(N3CCC[C@@](C)(O)C3)c3cnc(-c4cc(O)cc5ccc(F)c(CC)c45)c(F)c3n2)C1` [Compound 123], in the experiment on AGS (Homo sapiens, AGS, 96 h), the IC50 was 82 nM. Besides, on KRAS G12D, the DC50 was 122 nM.

In the case of `CCc1c(F)ccc2cc(O)cc(-c3ncc4c(N5CCC[C@@](C)(O)C5)nc(OCC5(CN6CCN(C7CCN(c8cc([C@H](C(=O)N9C[C@H](O)C[C@H]9C(=O)N[C@H](C)c9ccc(-c%10scnc%10C)cc9)C(C)C)on8)CC7)CC6)CC5)nc4c3F)c12` [Compound 164], the IC50 in the experiment with AGS (setting [1]) came to 38 nM.

With `CCc1c(F)ccc2cc(O)cc(-c3ncc4c(N5CCC[C@@](C)(O)C5)nc(OCC5(CN6CCN(C7CC(c8cn([C@H](C(=O)N9C[C@H](O)C[C@H]9C(=O)N[C@@H](C)c9ccc(-c%10scnc%10C)cc9)C(C)C)nn8)C7)CC6)CC5)nc4c3F)c12` (stereo partly drawn) [Compound 165, (2S,4R)-1-((S)-2-(4-(3-(4-((1-(((7-(8-ethyl-7-fluoro-3-hydroxynaphthalen-1-yl)-8-fluoro-4-((R)-3-hydroxy-3-methylpiperidin-1-yl)pyrido[4,3-d]pyrimidin-2-yl)oxy)methyl)cyclopropyl)methyl)piperazin-1-yl)cyclobutyl)-1H-1,2,3-triazol-1-yl)-3-methylbutanoyl)-4-hydroxy-N-((S)-1-(4-(4-methylthiazol-5-yl)phenyl)ethyl)pyrrolidine-2-carboxamide], the IC50 in the experiment on AGS (Homo sapiens, AGS, 96 h) was 9.2 nM. With `CCc1c(F)ccc2cc(O)cc(-c3ncc4c(N5CCC[C@@](C)(O)C5)nc(OCC5(CN6CCC(Oc7ccc(-c8cn([C@H](C(=O)N9C[C@H](O)C[C@H]9C(=O)N[C@@H](C)c9ccc(-c%10scnc%10C)cc9)C(C)C)nn8)nn7)CC6)CC5)nc4c3F)c12` [Compound 167], the IC50 in the experiment on AGS (setting [1]) was 8.8 nM. Regarding `CCc1c(F)ccc2cc(O)cc(-c3ncc4c(N5CCC[C@@](C)(O)C5)nc(OCC5(CN6CCC(Oc7ccc(-c8cn([C@H](C(=O)N9C[C@H](O)C[C@H]9C(=O)N[C@@H](CO)c9ccc(-c%10scnc%10C)cc9)C(C)C)nn8)cn7)CC6)CC5)nc4c3F)c12` [Compound 171], in the experiment with AGS (setting [1]), the IC50 was found to be 13 nM. Regarding `CCc1c(F)ccc2cc(O)cc(-c3ncc4c(N5CCC[C@@](C)(O)C5)nc(OCC5(CN6CCC(Oc7cnc(-c8cn([C@H](C(=O)N9C[C@H](O)C[C@H]9C(=O)N[C@@H](CO)c9ccc(-c%10ccnn%10CC)cc9)C(C)C)nn8)cn7)CC6)CC5)nc4c3F)c12` [Compound 172], the IC50 with AGS turned out to be 3.6 nM. In the case of `CCc1c(F)ccc2cc(O)cc(-c3ncc4c(N5CCC[C@@](C)(O)C5)nc(OCC5(CN6CCC(Oc7ncc(-c8cn([C@H](C(=O)N9C[C@H](O)C[C@H]9C(=O)N[C@@H](C)c9ccc(-c%10scnc%10C)cc9)C(C)C)nn8)s7)CC6)CC5)nc4c3F)c12` [Compound 181], the IC50 in the experiment with AGS (setting [1]) worked out at 11 nM. Regarding `CCc1c(F)ccc2cc(O)cc(-c3ccc4c(N5CCC[C@@](C)(O)C5)nc(OCC5(CN6CCC7(CC6)CN(c6cnc(-c8cn([C@H](C(=O)N9C[C@H](O)C[C@H]9C(=O)N[C@@H](C)c9ccc(-c%10scnc%10C)cc9)C(C)C)nn8)cn6)C7)CC5)nc4c3F)c12` [Compound 186], the IC50 with AGS (setting [1]) worked out at 20 nM. For the compound `CCc1c(F)ccc2cc(O)cc(-c3ncc4c(N5CCC[C@@](C)(O)C5)nc(OCC5(CN6CCN(Cc7cnc(-c8cn([C@H](C(=O)N9C[C@H](O)C[C@H]9C(=O)N[C@@H](C)c9ccc(-c%10scnc%10C)cc9)C(C)C)nn8)s7)CC6)CC5)nc4c3F)c12` [Compound 187], in the experiment on AGS (setting [1]), the IC50 turned out to be 7.5 nM. On to “(2S,4R)-1-((S)-2-(4-(1-((1-((1-(((7-(8-ethyl-7-fluoro-3-hydroxynaphthalen-1-yl)-8-fluoro-4-((R)-3-hydroxy-3-methylpiperidin-1-yl)pyrido[4,3-d]pyrimidin-2-yl)oxy)methyl)cyclopropyl)methyl) piperidin-4-yl)methyl)-1H-pyrazol-4-yl)-1H-1,2,3-triazol-1-yl)-3-methylbutanoyl)-4-hydroxy-N-((S)-1-(4-(4-methylthiazol-5-yl)phenyl)ethyl)pyrrolidine-2-carboxamide [Compound 182]”, for which the IC50 in the experiment with AGS was found to be 24 nM. Regarding “(2S,4R)-1-((S)-2-(4-(1-((1-((1-(((7-(8-ethyl-7-fluoro-3-hydroxynaphthalen-1-yl)-8-fluoro-4-((R)-3-hydroxy-3-methylpiperidin-1-yl)pyrido[4,3-d]pyrimidin-2-yl)oxy)methyl)piperidin-4-yl)methy l)azetidin-3-yl)-1H-1,2,3-triazol-1-yl)-3-methylbutanoyl)-4-hydroxy-N-((S)-1-(4-(4-methylthiaz ol-5-yl)phenyl)ethyl)pyrrolidine-2-carboxamide [Compound 129]”, the IC50 in the experiment with AGS (setting [1]) came out at 37 nM. For the compound “(2S,4R)-1-((S)-2-(4-(3-((1-((1-((7-(8-ethyl-7-fluoro-3-hydroxynaphthalen-1-yl)-8-fluoro-4-((R)-3-hydroxy-3-methylpiperidin-1-yl)pyrido[4,3-d]pyrimidin-2-yl)oxy)methyl)cyclopropyl)methyl) piperidin-4-yl)methyl)amino)bicyclo[1.1.1]pent-1-yl)-1H-1,3-triazol-1-yl)-3-methylbutanoyl)-4-hydroxy-N-((S)-1-(4-(4-methylthiazol-5-yl)phenyl)ethyl)pyrrolidine-2-carboxamide [Compound 180]”, in the experiment with AGS (setting [1]), the IC50 was determined as 20 nM. Consider “(2S,4R)-1-((S)-2-(4-(5-(1-((1-((7-(8-ethyl-7-fluoro-3-hydroxynaphthalen-1-yl)-8-fluoro-4-((R)-3 -hydroxy-3-methylpiperidin-1-yl)pyrido[4,3-d]pyrimidin-2-yl)oxy)methyl)cyclopropyl)methyl)p iperidin-4-yl)oxy)pyrimidin-2-yl)-1H-1,2,3-triazol-1-yl)-3-methylbutanoyl)-4-hydroxy-N-((S)-1-(4-hydroxyl-N-(4-(4-methylthiazol-5-yl)phenyl)ethyl)pyrrolidine-2-carboxamide [Compound 169]”, for which, in the experiment with AGS (setting [1]), the IC50 is 20 nM. Same read-out and setting: as for “(2S,4R)-1-((S)-2-(4-(5-(7-((7-(8-ethyl-7-fluoro-3-hydroxynaphthalen-1-yl)-8-fluoro-4-((R)-3-hy droxy-3-methylpiperidin-1-yl)pyrido[4,3-d]pyrimidin-2-yl)oxy)methyl)cyclopropyl)methyl)-2,7-azaspiro[3.5]nonan-2-yl)pyrazin-2-yl)-1H-1,2,3-triazol-1-yl)-3-methylbutanoyl)-4-hydroxy-N-(( S)-1-(4-methylthiazol-5-yl)phenyl)ethyl)pyrrolidine-2-carboxamide [Compound 168]”, the figure is 5.6 nM. For “(2S,4R)-1-((S)-2-(4-(5-((4-((1-(((7-(8-ethyl-7-fluoro-3-hydroxynaphthalen-1-yl)-8-fluoro-4-((R)-3-hydroxy-3-methylpiperidin-1-yl)pyrido[4,3-d]pyrimidin-2-yl)oxy)methyl)cyclopropyl)methyl) piperazin-1-yl)methyl)piperazin-3-yl)-1H-1,2,3-triazol-1-yl)-3-methylbutanoyl)-4-hydroxy-N-((S )-1-(4-(4-methylthiazol-5-yl)phenyl)ethyl)pyrrolidine-2-carboxamide [Compound 177]”, the IC50 in the experiment on AGS turned out to be 4.2 nM. As for “(2S,4R)-1-((S)-2-(4-(5-((((3R,7aR)-7a-(((7-(8-ethyl-7-fluoro-3-hydroxynaphthalen-1-yl)-8-fluor o-4-((R)-3-hydroxy-3-methylpiperidin-l-yl)pyrido[4,3-d]pyrimidin-2-yl)oxy)methyl)hexahydro-1H-pyrrolizin-3-yl)methoxy)pyrazin-2-yl)-1H-1,2,3-triazol-1-yl)-3-methylbutanoyl)-4-hydroxy-N-((S)-1-(4-(4-methylthiazol-5-yl)phenyl)ethyl)pyrrolidine-2-carboxamide [Compound 188]”, the IC50 in the experiment on AGS (setting [1]) is 12 nM. Consider “(2S,4R)-1-((S)-2-(4-(6-((1-((1-(((7-(8-ethyl-7-fluoro-3-hydroxynaphthalen-1-yl)-8-fluoro-4-((R)-3-hydroxy-3-methylpiperidin-1-yl)pyrido[4,3-d]pyrimidin-2-yl)oxy)methyl)cyclopropyl)methyl) -4-methylpiperidin-4-yl)oxy)piperidin-3-yl)-1H-1,2,3-triazol-1-yl)-3-methylbutanoyl)-4-hydroxy -N-((S)-1-(4-(4-methylthiazol-5-yl)phenyl)ethyl)pyrrolidine-2-carboxamide [Compound 176]”, for which the IC50 in the experiment with AGS came to 33 nM. Turning to “(2S,4R)-1-((S)-2-(4-(6-((4-((1-(((7-(8-ethyl-7-fluoro-3-hydroxynaphthalen-1-yl)-8-fluoro-4-((R)-3-hydroxy-3-methylpiperidin-1-yl)pyrido[4,3-d]pyrimidin-2-yl)oxy)methyl)cyclopropyl)methyl) pyridin-1-yl)methyl)pyridin-3-yl)-1H-1,2,3-triazol-1-yl)-3-methylbutanoyl)-4-hydroxy-N-((S)-1-(4-(4-methylthiazol-5-yl)phenyl)ethyl)pyrrolidine-2-carboxamide [Compound 179]”, in the experiment on AGS, the IC50 came to 27 nM. Turning to “(3S,7aS)-7a-((7-(7-(8-ethyl-7-fluoro-3-hydroxynaphthalen-1-yl)-8-fluoro-4-((R)-3-hydroxy-3-m ethylpiperidin-1-yl)pyrido[4,3-d]pyrimidin-2-yl)pyrimidin-2-yl)oxy)methyl)-6-methylenehexahy dro-1H-pyrrolizin-3-yl)methyl-4-(((5-(R)-1-(2S,4R)-4-hydroxy-2-(((S)-1-(4-(4-methylthiazol-5-yl)phenyl)ethyl)carbamoyl)pyrrolidin-1-yl)-3-methyl-1-oxobutan-2-yl)isoxazol-3-yl)oxy)methyl )piperidine-1-carboxylate [Compound 125]”, in the experiment with AGS (setting [1]), the IC50 turned out to be 52 nM.

The values are drawn from patent EP4631940A1, “COMPOUND TARGETING PAN-KRAS PROTEIN DEGRADATION AGENT AND USE THEREOF” (Betta Pharmaceuticals Co., Ltd., priority 2022, dated 2024).
